Data taken from US11873298B2, “Compounds and uses thereof” (JANSSEN PHARMACEUTICA NV, priority 2017, dated 2024).

Experiments:
[1] = target: T1, SCD1 (Homo sapiens, UniProt O00767); assay: Growth inhibition of humanized yeast strain expressing SCD1 as sole desaturase; assay type: cell-based
T1 construct: host or cells: S. cerevisiae ole1Δ strain (W303 pdr1Δ pdr3Δ background), plasmid pRS316 with TDH3 promoter and CYC1 terminator
T1 sequence (O00767 1-359): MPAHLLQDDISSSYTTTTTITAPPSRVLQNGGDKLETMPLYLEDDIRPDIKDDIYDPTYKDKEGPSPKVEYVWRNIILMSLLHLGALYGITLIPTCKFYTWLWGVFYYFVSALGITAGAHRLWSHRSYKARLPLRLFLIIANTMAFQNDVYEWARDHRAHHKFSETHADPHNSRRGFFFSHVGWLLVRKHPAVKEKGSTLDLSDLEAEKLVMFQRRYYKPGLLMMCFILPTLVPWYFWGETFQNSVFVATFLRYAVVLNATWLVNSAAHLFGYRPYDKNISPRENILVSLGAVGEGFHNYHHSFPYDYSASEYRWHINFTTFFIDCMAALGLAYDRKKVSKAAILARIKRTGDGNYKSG
In short: (§1)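 Plasmid-complemented ole1Δ yeast, drug-pump deleted (pdr1Δ pdr3Δ), depend solely on the introduced Ole1, SCD1 or SCD5 desaturase. Compounds are added from DMSO to cells in uracil-free galactose medium, 2× density 0.02, and OD600 is read after 24 h or 40 h respectively.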

[2] = target: T2, SCD5 (Homo sapiens, UniProt Q86SK9); assay: Growth inhibition of humanized yeast strain expressing SCD5 as sole desaturase; assay type: cell-based
T2 construct: host or cells: S. cerevisiae ole1Δ strain (W303 pdr1Δ pdr3Δ background), plasmid pRS316 with TDH3 promoter and CYC1 terminator
T2 sequence (Q86SK9 1-330): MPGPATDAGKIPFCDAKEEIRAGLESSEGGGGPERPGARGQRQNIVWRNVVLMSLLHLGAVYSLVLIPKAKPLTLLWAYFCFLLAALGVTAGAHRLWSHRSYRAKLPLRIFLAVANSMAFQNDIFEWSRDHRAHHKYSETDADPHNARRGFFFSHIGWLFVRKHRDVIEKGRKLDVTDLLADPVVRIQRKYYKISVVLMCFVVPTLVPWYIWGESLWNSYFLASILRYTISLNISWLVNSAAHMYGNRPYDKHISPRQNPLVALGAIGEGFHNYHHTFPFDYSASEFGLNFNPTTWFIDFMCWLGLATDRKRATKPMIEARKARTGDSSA
In short: as §1

[3] = growth inhibition of humanized yeast strain expressing human SCD1
[4] = growth inhibition of humanized yeast strain expressing human SCD5
[5] = humanized yeast strain expressing SCD5

SMILES	IC50 ([1]; humanized yeast strain, 40 h) [µM]	IC50 ([2]; humanized yeast strain, 40 h) [µM]	also measured
CNC(=O)Cn1cc2ccc(-c3noc(C4CCN(C(=O)OC(C)(C)C)CC4)n3)cc2n1 [Compound 678]	–	–	IC50 [1, 3]: > 45 µM; IC50 [2, 4]: 3.87 µM
CC(C)(C)OC(=O)N1CCN(c2noc(-c3ccnc(NC4COC4)c3)n2)CC1 [Compound 818]	> 45	0.56	–
COC(=O)N1CCC(c2noc(-c3ccnc(C4CCOC4)c3)n2)CC1 (stereo not drawn) [Compound 1015]	> 45	0.429	–
CC(C)n1nc(CCS(C)(=O)=O)c2ccc(-c3noc(C4CCN(C(=O)OC(C)(C)C)CC4)n3)cc21 [Compound 767]	> 45	0.01	–
CC1(CC(=O)N2CCN(c3nnc(-c4ccc5cnn(C6COC6)c5c4)o3)CC2)CC1 [Compound 995]	> 45	> 45	–
CC(C)(C)OC(=O)N1CCC(c2nc(N3CC4(COC4)C3)no2)CC1 [Compound 806]	> 45	> 45	–
CNC(=O)OC1CCC(c2nc(-c3ccc4cnn(C(C)C)c4c3)no2)CC1 (stereo not drawn) [Compound 608]	–	–	IC50 [1, 3]: > 45 µM; IC50 [2, 4]: > 45 µM
Cc1nn(C)c2cc(-c3nc(C4CCN(C(=O)C(C)C)CC4)no3)ccc12 [Compound 938]	> 45	> 45	–
CC(C)(C)OC(=O)N1CCC(c2noc(-c3cc4c(cnn4C4COC4)cc3F)n2)CC1 [Compound 931]	> 45	> 45	–
CC(C)C(=O)N1CCC(c2noc(-c3ccnc(NC4COC4)c3)n2)CC1 [Compound 1153]	1.94	0.84	–
COC(=O)N1CCC(c2nc(-c3ccc4cnc(C5COC5)n4c3)no2)CC1 [Compound 900]	> 45	13.1	–
COC(=O)N1CCN(c2noc(-c3ccc4cnn(C5CN(C)C5)c4c3)n2)CC1 [Compound 960]	20.4	0.01	–
CC(C)(C)OC(=O)N1CCC(c2noc(-c3ccnc(C4CCCO4)c3)n2)CC1 (stereo not drawn) [Compound 1003]	> 45	0.457	–
O=C(OC1CC1)N1CCN(c2nc(-c3ccc4cnn(C5COC5)c4c3)no2)CC1 [Compound 642]	–	–	IC50 [1, 3]: > 45 µM; IC50 [2, 4]: 0.211 µM
COC(=O)N1CCC(c2noc(-c3ccc4cnn(C5CCCC5)c4c3)n2)CC1 [Compound 1042]	> 45	0.079	–
CC(C)(C)OC(=O)N1CCC(c2nc(-c3ccc4cnn(C5CC5)c4c3)no2)CC1 [Compound 360]	–	–	SCD1 % Max Inhibition ([1]; humanized yeast strain expressing SCD1): 64.03%; IC50 [2, 5]: > 45 µM; SCD5 % Max Inhibition [2, 5]: 2.38%
O=C(N1CCC(c2noc(-c3ccc4cnn(C5COC5)c4c3)n2)CC1)C12CC(F)(C1)C2 [Compound 895]	> 45	0.01	–
CC(C)n1ncc2cnc(-c3cc(C4CCN(C(=O)OC(C)(C)C)CC4)on3)cc21 [Compound 885]	25.4	0.01	–
CC(C)n1nc(CCO)c2ccc(-c3noc(C4CCN(C(=O)OC(C)(C)C)CC4)n3)cc21 [Compound 699]	–	–	IC50 [1, 3]: > 45 µM; IC50 [2, 4]: 7.65 µM
CC(C)(C)OC(=O)N1CCN(c2noc(-c3cccc(C4CCCO4)c3)n2)CC1 (stereo not drawn) [Compound 785]	9.21	0.041	–
CC(C)(C)OC(=O)N1CCN(c2noc(-c3ccnc(OC4COC4)c3)n2)CC1 [Compound 977]	> 45	5.94	–
CC1(OC(=O)N2CCC(c3nc(-c4ccc5cnn(C6(C)COC6)c5c4)no3)CC2)CC1 [Compound 816]	> 45	7.19	–
O=C(N1CCC(c2noc(-c3ccnc(C4CCOC4)c3)n2)CC1)C1(C(F)(F)F)CC1 (stereo not drawn) [Compound 1177]	> 45	0.84	–
COC(=O)N1CCC(c2nc(-c3ccc4cnn([C@@H]5CCOC5)c4c3)no2)CC1 [Compound 907]	> 45	0.04	–
O=C(OC1CC1)N1CCN(c2noc(-c3ccc4cnn(C5COC5)c4c3)n2)CC(F)(F)C1 [Compound 1083]	> 45	0.033	–
CC(C)(C)CC(=O)N1CC(c2nc(-c3ccc4cnn(C5COC5)c4c3)no2)C1 [Compound 707]	–	–	IC50 [1, 3]: > 45 µM; IC50 [2, 4]: 14.5 µM
O=C(C1CCC1)N1CCC(c2noc(-c3ccc4cnn([C@@H]5CCOC5)c4c3)n2)CC1 [Compound 1093]	> 45	0.00253	–
COC(=O)N1CCC(c2noc(-c3cccc(N4CCOCC4)c3)n2)CC1 [Compound 983]	> 45	1.51	–
